The record followed here is patent publication US6700013B2, “Tricyclic fused heterocycle compounds, process for preparing the same and use thereof” (Nippon Suisan Kaisha, Ltd., priority 1999, dated 2004).

The structures appear in SMILES notation.

In one data set the test system is pig tracheal smooth muscles. The experiment in a line: Dilating action on contraction of tracheal smooth muscles (high K+ contraction, Magnus tube). Particulars: Sus scrofa, 2 h; K+ contraction (72.7 mM); test substance final concentration 10 μM; two hours after addition; tension before addition = 100%; read-out: Relative Contraction Force (%). An excerpt:
With the use of pig tracheal muscles, the action of the compounds of the present invention on contraction of tracheal muscles has been investigated. The method refers to “Smooth Muscle Manual” (published by Bun'eido Publishing Co.), pp. 125-137. The trachea cartilage mucous membrane and submucous tissue of a pig trachea were removed to prepare a specimen of tracheal smooth muscles having a major diameter of about 10 mm and a minor diameter of about 1.5 mm. This specimen was suspended in a Magnus tube which was aerated with a mixed gas of 95% of oxygen and 5% of carbon dioxide and contained nutrient solution at 37° C. and a load of 0.8 g was applied to this specimen, and after the tension of the specimen was stabilized, the nutrient solution was replaced with a high concentration K^+ solution (72.7 mM) to provoke K^+ contraction. The procedure of replacing the solution in the Magnus tube with the nutrient solution to wash the solution and provoking K^+ contraction with the high concentration K^+ solution was repeated again until the contraction force became constant. When the tension of the K^+ contraction became constant, each of the compounds described in Table 19 (the structural formula of the Comparative Example being described in the right side of the compound of the above described Example 180) was added to the high concentration K^+ solution as the test substance to measure the change in tension. The test substance was dissolved in dimethyl sulfoxide at a predetermined concentration and added to the high concentration K^+ solution in such a manner that the final concentration came to 10 μM. The trachea cartilage mucous membrane and submucous tissue of a pig trachea were removed to prepare a specimen of tracheal smooth muscles having a major diameter of about 10 mm and a minor diameter of about 1.5 mm. This specimen was suspended in a Magnus tube which was aerated with a mixed gas of 95% of oxygen and 5% of carbon dioxide and contained nutrient solution at 37° C. and a load of 0.8 g was applied to this specimen, and after the tension of the specimen was stabilized, the nutrient solution was replaced with a high concentration K+ solution (72.7 mM) to provoke K+ contraction. The procedure of replacing the solution in the Magnus tube with the nutrient solution to wash the solution and provoking K+ contraction with the high concentration K+ solution was repeated again until the contraction force became constant. When the tension of the K+ contraction became constant, each of the compounds described in Table 19 (the structural formula of the Comparative Example being described in the right side of the compound of the above described Example 180) was added to the high concentration K+ solution as the test substance to measure the change in tension. The test substance was dissolved in dimethyl sulfoxide at a predetermined concentration and added to the high concentration K+ solution in such a manner that the final concentration came to […]. Further, the final concentration of dimethyl sulfoxide added was made 0.3% or less. The change in tension was led to a strain pressure amplifier (“AP-621G3”, manufactured by Nippon Koden Kogyo) through a FD pickup transducer (“TB-611T”, manufactured by Nippon Koden Kogyo) and recorded on a recorder (“R-64V”, manufactured by Rika Electric). When the tension before replacement with the high concentration K+ solution was regarded as 0% and the last tension which was generated by the high concentration K+ solution before the addition of a test substance was regarded as 100%, the contraction force of the tracheal smooth muscle two hours after addition of a test substance was shown as relative percentage. […]
As to `O=C1Cc2ccc(-c3ccco3)cc2Sc2cc(O)cc(O)c21` [Example 82], the activity at 10 µM amounted to 22.4%.

In the case of `CC1C(=O)c2cc(O)c(O)cc2Sc2ccccc21` (stereo not drawn) [Example 37], the activity at 10 µM was 7.5%.

Regarding `Oc1cc(O)c2c(c1)Sc1cccc(Cl)c1CC2` [Example 27], the activity at 10 µM was found to be 1.4%.

On to `Oc1cc(O)c2c(c1)Sc1ccccc1CC2` [Comparative Example, reference compound], for which the activity at 10 µM stood at 54.5%.

As to `Oc1cc(O)c2c(c1)Oc1cc(-c3cccs3)ccc1CC2` [Example 110], the activity at 10 µM came out at 10.9%.

For the compound `O=C1Cc2c(Cl)cccc2Sc2cc(O)cc(O)c21` [Example 17], the activity at 10 µM turned out to be 0%.

Regarding `Oc1cc(O)c2c(c1)Sc1cc(-c3ccco3)ccc1CC2` [Example 124], the activity at 10 µM was 30.3%.

For another data set, the system named is Sprague-Dawley line rats. The experiment in a line: Toxicity study of two-week repeated-dose oral administration with rats. It counts as in vivo. Particulars: male, oral, 0, 125 and 500 mg/kg/day repeatedly for two weeks. Here is the method:
In order to study the toxicity by repeated-dose administration of compounds, the compounds were dosed orally to Sprague-Dawley line rats (three male rats per group) with 0, 125 and 500 mg/kg/day (a 0.5 w/v % CMC-Na solution) repeatedly for two weeks.
As to `Oc1cc(O)c2c(c1)Sc1ccccc1CC2` [Comparative Example, reference compound], the “Results (toxicity findings)” value is reported as “Kidney damage were observed with”.

Test system in the next data set: not given
Assay: not given
Conditions: not given
The term melting point denotes the temperature, or range, at which the solid turns liquid. As to `O=C1Cc2ccc(-c3ccco3)cc2Sc2cc(O)cc(O)c21` [Example 82], the melting point lay in the range of 234.9 to 238.8 °C.

For the compound `Oc1cc(O)c2c(c1)Sc1cccc(Cl)c1CC2` [Example 27], the melting point fell in the range of 127.3 to 130.7 °C.

As for `Oc1cc(O)c2c(c1)Oc1cc(-c3cccs3)ccc1CC2` [Example 110], the melting point lay in the range of 194.2 to 195.6 °C.

Take `O=C1Cc2c(Cl)cccc2Sc2cc(O)cc(O)c21` [Example 17]: the melting point is > 200 °C (dec.).

With `CCC1C(=O)c2cc(O)c(O)cc2Sc2cc(-c3cccs3)ccc21` (stereo not drawn) [Example 155], the melting point was in the range of 270.3 to 271.9 °C.

On to `CC(C)(C)c1ccc2c(c1)CCc1c(O)cc(O)cc1S2` [Example 137], for which the melting point was in the range of 151.7 to 153.7 °C.

As for `O=C(c1ccc2c(c1)CCc1c(O)cc(O)cc1S2)C1CC1` [Example 135], the melting point lay within 142.2 to 143.5 °C.

With `O=C1Cc2ccc(-c3ccc(O)cc3O)cc2Oc2cc(O)cc(O)c21` [Example 100], the melting point was 239.1 to 242.6 °C.

Compound `O=C1Cc2cc(-c3cccnc3)ccc2Oc2cc(O)cc(O)c21` [Example 55] displayed a melting point of 293.9 to 300.1 °C.

On to `Oc1cc(O)c2c(c1)Sc1ccc(Cl)cc1CC2` [Example 26], for which the melting point was 181.1 to 184.9 °C.

For `Oc1cc(O)c2c(c1)Sc1cc(-c3ccco3)ccc1CC2` [Example 124], the melting point fell in the range of 148.5 to 149.6 °C.

Take `CCC1C(=O)c2cc(O)c(O)cc2Sc2cc(-c3cccc([N+](=O)[O-])c3)ccc21` (stereo not drawn) [Example 175]: the melting point fell in the range of 221.8 to 225 °C.

As for `O=C1Cc2ccc(-c3ccco3)cc2Oc2cc(O)cc(O)c21` [Example 70], the melting point was in the range of 249.6 to 250.8 °C.

With `O=C1Cc2ccc(-c3ccc(O)c(O)c3)cc2Oc2cc(O)cc(O)c21` [Example 98], the melting point fell in the range of 229.8 to 231.6 °C.

As to `ON=C1Cc2ccccc2Oc2cc(O)cc(O)c21` [Example 24], the melting point is 208 to 213.7 °C.

`Oc1cc(O)c2c(c1)Oc1cc(CCc3ccccc3)ccc1CC2` [Example 108]: the melting point was in the range of 169.1 to 174.9 °C.

For `CON=C(C)c1ccc2c(c1)CCc1c(O)cc(O)cc1S2` [Example 138], the melting point was in the range of 176.7 to 177.6 °C.

Consider `O=C1Cc2cc(-c3ccco3)ccc2Oc2cc(O)cc(O)c21` [Example 57], for which the melting point lay within 171 to 172.7 °C.

For `O=C1Cc2ccc(-c3ccc(-c4ccccc4)cc3)cc2Oc2cc(O)cc(O)c21` [Example 96], the melting point lay in the range of 261.6 to 263.2 °C.

The compound `CCC1=Cc2cc(O)c(O)cc2Sc2ccccc21` [Example 143] registered a melting point of 37.9 to 41.5 °C.

The compound `O=C1Cc2cc(-c3ccc(O)cc3O)ccc2Oc2cc(O)cc(O)c21` [Example 77] yielded a melting point of 212.6 to 215.7 °C.

As to `O=C1Cc2cc(-c3ccccc3)ccc2Sc2cc(O)cc(O)c21` [Example 78], the melting point is 190.8 to 195.3 °C.

Turning to `Oc1cc(O)c2c(c1)Sc1cc(-c3cccs3)ccc1CC2` [Example 123], the melting point was in the range of 196.1 to 198.5 °C.

Consider `Cc1ccc(-c2ccc3c(c2)Oc2cc(O)cc(O)c2C(=O)C3)cc1` [Example 71], for which the melting point lay within 208.8 to 210.2 °C.

As for `CC1(C)C(=O)c2cc(O)c(O)cc2Sc2ccccc21` [Example 31], the melting point lay in the range of 194.2 to 196.1 °C.

As to `CCC1C(=O)c2cc(O)c(O)cc2Sc2cc(-c3cccc(C(F)(F)F)c3)ccc21` (stereo not drawn) [Example 156], the melting point was in the range of 109.7 to 111.9 °C.

With `CCC1C(=O)c2cc(O)c(O)cc2Sc2cc(Br)ccc21` (stereo not drawn) [Example 45], the melting point was in the range of 227.2 to 229.9 °C.

Consider `O=C1Cc2ccc(I)cc2Sc2cc(O)cc(O)c21` [Example 8, 3-Iodo-7,9-dihydroxy-10,11-dihydrodibenzo[b,f]thiepin-10-one], for which the melting point is > 250 °C (dec.).

Regarding `CCC1C(=O)c2cc(O)c(O)cc2Sc2cc(-c3cc4ccccc4o3)ccc21` (stereo not drawn) [Example 168], the melting point is 293.2 °C (dec.).

As to `O=C1Cc2cc(Cl)ccc2Sc2cc(O)cc(O)c21` [Example 15], the melting point lay in the range of 217.9 to 221.6 °C.

Turning to `N#Cc1ccc2c(c1)CCc1c(O)cc(O)cc1S2` [Example 29], the melting point fell in the range of 237.4 to 238.6 °C.

Regarding `O=C1Cc2cc(-c3ccco3)ccc2Sc2cc(O)cc(O)c21` [Example 84], the melting point was 243.5 to 248.4 °C (dec.).

`O=C1Cc2ccc(Br)cc2Sc2cc(O)c(O)cc21` [Example 20] gave a melting point greater than 250 °C.

For `CCC1C(=O)c2cc(O)c(O)cc2Sc2cc(-c3cccc(Cl)c3)ccc21` (stereo not drawn) [Example 157], the melting point lay in the range of 175.5 to 176.8 °C.

In turn, `O=C1Cc2cc(-c3cccs3)ccc2Sc2cc(O)cc(O)c21` [Example 76] returned a melting point of 240.1 to 246.1 °C.

`CCC1C(=O)c2cc(O)c(O)cc2Sc2ccc(-c3ccco3)cc21` (stereo not drawn) [Example 159] had a melting point of 238.7 to 241.7 °C.

For `CCC1C(=O)c2cc(O)c(O)cc2Sc2cc(-c3ccc(O)cc3)ccc21` (stereo not drawn) [Example 177], the melting point lay in the range of 155.4 to 159.4 °C.

With `O=CNc1cccc(-c2ccc3c(c2)CC(=O)c2c(O)cc(O)cc2O3)c1` [Example 75], the melting point is 241 to 247.08 °C.

Consider `CC1=Cc2cc(O)c(O)cc2Sc2ccccc21` [Example 145], for which the melting point is 68.2 to 70.1 °C.

The compound `Oc1cc(O)c2c(c1)Sc1ccc(-c3ccco3)cc1CC2` [Example 127] gave a melting point of 213.7 to 214.7 °C.

For the compound `O=C1Cc2ccc(-c3ccc(OC(F)(F)F)cc3)cc2Oc2cc(O)cc(O)c21` [Example 97], the melting point is 197.7 to 200.8 °C.

For the compound `O=C1c2c(O)cc(O)cc2Sc2ccccc2C1Cc1ccccc1` (stereo not drawn) [Example 40], the melting point is 67.5 to 68.3 °C.

In the case of `CCC1C(=O)c2cc(O)c(O)cc2Sc2ccc(-c3cccs3)cc21` (stereo not drawn) [Example 162], the melting point lay within 225.7 to 227.4 °C.

In the case of `CCON=C(C)c1ccc2c(c1)CCc1c(O)cc(O)cc1S2` [Example 139], the melting point was in the range of 110.7 to 112.4 °C.

The compound `Oc1cc(O)c2c(c1)Oc1cc(-c3ccco3)ccc1CC2` [Example 115] showed a melting point of 198.6 to 201.1 °C.

Consider `O=C1Cc2ccc(-c3ccccc3)cc2Sc2cc(O)cc(O)c21` [Example 87], for which the melting point lay within 209.7 to 212 °C.

Compound `Oc1cc(O)c2c(c1)Oc1cc(-c3ccccc3)ccc1CC2` [Example 7, 7-Phenyl-10,11-dihydrodibenz[b,f]oxepin-1,3-diol] gave a melting point of 179.6 to 180.4 °C.

With `CCC1C(=O)c2cc(O)c(O)cc2Sc2ccc(Br)cc21` (stereo not drawn) [Example 44], the melting point was in the range of 235.6 to 237.4 °C.

With `O=C1Cc2ccc(CCc3ccccc3)cc2Oc2cc(O)cc(O)c21` [Example 51], the melting point fell in the range of 125.9 to 127.7 °C.
